# Reference: US9309222B2, “Phenyl linked quinolinyl modulators of RORγt” (Janssen Pharmaceutica NV, priority 2012, dated 2016)
# Structures can show the parent of a compound that is named as a salt.
# Experiments:
# [1] = target: T1, human RORγt ligand binding domain (RORγt LBD) (Homo sapiens, UniProt P51449); assay: RORγt ThermoFluor assay (thermal shift, ligand binding affinity); details: estimated from concentration response of thermal shift
# T1 construct: His-tag (N); TurboTEV protease cleavage site (ENLYFQG) (N); made in house; host or cells: E. coli (pHIS1, modified pET vector)
# T1 sequence (P51449 with tags, fused parts or gaps): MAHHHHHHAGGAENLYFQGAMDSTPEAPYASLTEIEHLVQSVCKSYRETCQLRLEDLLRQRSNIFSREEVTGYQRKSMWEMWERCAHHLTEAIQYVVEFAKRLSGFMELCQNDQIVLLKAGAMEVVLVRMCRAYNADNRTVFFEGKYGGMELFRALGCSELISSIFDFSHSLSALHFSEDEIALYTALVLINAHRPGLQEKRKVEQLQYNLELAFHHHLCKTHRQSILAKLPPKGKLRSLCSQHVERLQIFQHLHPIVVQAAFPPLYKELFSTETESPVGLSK
# Method in brief: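 Thermal shift of 0.065 mg/mL RORγt with 60 μM 1,8-ANS in 100 mM Hepes pH 7.0, 10 mM NaCl, 2.5 mM GSH, 0.002% Tween-20. Compounds in 1:2 series from 10 mM DMSO stock. Dye fluorescence (500 nm emission) tracked versus temperature; ΔTm used to derive KD.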
# human RORγt LBD = target: T2, human RORγt LBD (Homo sapiens, UniProt P51449); assay: RORγt reporter assay (GAL4-RORγt LBD luciferase in HEK293T cells); assay type: cell-based; details: for IC50: HEK293T cells, 24 hours compound treatment; for inhibition at 6 µM: HEK-293T, read-out: RORγt reporter Assay, % inhibition @ 6 μM, HEK293T cells, 6 μM compound
# T2 construct: expressed in transfected cells
# T2 sequence (P51449 258-518): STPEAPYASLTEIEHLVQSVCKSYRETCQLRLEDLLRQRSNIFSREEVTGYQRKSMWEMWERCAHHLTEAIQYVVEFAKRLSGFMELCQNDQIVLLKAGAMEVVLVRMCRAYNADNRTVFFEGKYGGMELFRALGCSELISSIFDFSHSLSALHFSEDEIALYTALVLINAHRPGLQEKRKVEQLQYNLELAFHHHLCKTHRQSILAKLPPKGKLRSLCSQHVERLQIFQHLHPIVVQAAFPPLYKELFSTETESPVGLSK
# Method in brief: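 Read-out is the firefly-to-renilla luciferase ratio versus compound concentration, after 24 h compound exposure of cells in phenol-red-free DMEM/5% lipid-reduced FCS. Cells were HEK293T bulk-transfected with a GAL4-responsive firefly reporter (pGL4.31) and GAL4 DBD–wild-type human RORγt LBD fusion (pBIND, renilla as transfection/viability control).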
# [2] = tested on: IL-17 production by CD4 T cells; assay: Human Th17 assay (IL-17 production by CD4 T cells under Th17 differentiation conditions); assay type: cell-based; details: Homo sapiens, CD4+ T, 72 h, IL-17 in supernatant after 3 days
# Method in brief: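 Primary CD4+ T cells from healthy-donor PBMC, preincubated 1 h with titrated compound (0.2% DMSO), then activated with anti-CD3/CD28 beads plus anti-IL4, anti-IFNγ, IL1β, IL23, IL6, TGFβ and IL2.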
SMILES,Kd [1],IC50 (human RORγt LBD),inhibition at 6 µM (human RORγt LBD),IC50 [2]
"OC(c1ccc(Cl)nc1)(c1cccc(Cl)c1)c1ccc2nc(Cl)c(-c3ccccc3)c(Cl)c2c1 (centres unmarked) [Example 56, (3-Chlorophenyl)(6-chloropyridin-3-yl)(2,4-dichloro-3-phenylquinolin-6-yl)methanol]",0.04 µM,0.17 µM,91%,0.24 µM
"OC(c1ccc(Cl)nc1)(c1cccc(F)c1)c1ccc2nc(Cl)c(-c3ccccc3)c(Cl)c2c1 (centres unmarked) [Example 57, (6-Chloropyridin-3-yl)(2,4-dichloro-3-phenylquinolin-6-yl)(3-fluorophenyl)methanol]",0.055 µM,0.16 µM,90%,0.28 µM
"COc1ccc(C(O)(c2cccnc2)c2ccc3nc(N(C)C)c(-c4ccccc4)c(Cl)c3c2)cc1 (centres unmarked) [Example 62, [4-Chloro-2-(dimethylamino)-3-phenylquinolin-6-yl](4-methoxyphenyl)pyridin-3-ylmethanol•TFA]",0.42 µM,0.25 µM,98%,0.7 µM
"COCCN(C)c1nc2ccc(C(O)(c3ccncc3)c3cncn3C)cc2c(Cl)c1-c1ccccc1 (centres unmarked) [Example 63, {4-Chloro-2-[(2-methoxyethyl)(methyl)amino]-3-phenylquinolin-6-yl}(1-methyl-1H-imidazol-5-yl)pyridin-4-ylmethanol•TFA]",0.015 µM,0.0086 µM,106%,0.063 µM
"COc1cccc(C(O)(c2ccc(Cl)nc2)c2ccc3nc(Cl)c(-c4ccccc4)c(Cl)c3c2)c1 (centres unmarked) [Example 65, (6-Chloropyridin-3-yl)(2,4-dichloro-3-phenylquinolin-6-yl)(3-methoxyphenyl)methanol]",0.2 µM,0.16 µM,103%,0.19 µM
"Cn1cncc1C(O)(c1ccnc(Cl)c1)c1ccc2nc(Cl)c(-c3ccccc3)c(Cl)c2c1 (centres unmarked) [Example 66, (2-Chloropyridin-4-yl)(2,4-dichloro-3-phenylquinolin-6-yl)(1-methyl-1H-imidazol-5-yl)methanol•TFA]",0.0017 µM,0.01 µM,105%,0.059 µM
"COc1cc(C(O)(c2ccc3nc(Cl)c(-c4ccccc4)c(Cl)c3c2)c2cncn2C)ccn1 (centres unmarked) [Example 68, (2,4-Dichloro-3-phenylquinolin-6-yl)(2-methoxypyridin-4-yl)(1-methyl-1H-imidazol-5-yl)methanol•TFA]",0.0039 µM,0.0058 µM,103%,0.048 µM
"COc1cccc(C(O)(c2ccc(C)nc2)c2ccc3nc(Cl)c(-c4ccccc4)c(Cl)c3c2)c1 (centres unmarked) [Example 69, (2,4-Dichloro-3-phenylquinolin-6-yl)(3-methoxyphenyl)(6-methylpyridin-3-yl)methanol•TFA]",0.3 µM,0.15 µM,99%,0.61 µM
"Cc1ccc(C(O)(c2cccc(Cl)c2)c2ccc3nc(Cl)c(-c4ccccc4)c(Cl)c3c2)cn1 (centres unmarked) [Example 70, (3-Chlorophenyl)(2,4-dichloro-3-phenylquinolin-6-yl)(6-methylpyridin-3-yl)methanol•TFA]",0.77 µM,0.047 µM,95%,0.63 µM
"Cc1ccc(C(O)(c2cccc(F)c2)c2ccc3nc(Cl)c(-c4ccccc4)c(Cl)c3c2)cn1 (centres unmarked) [Example 71, (2,4-Dichloro-3-phenylquinolin-6-yl)(3-fluorophenyl)(6-methylpyridin-3-yl)methanol•TFA]",0.31 µM,0.082 µM,94%,0.69 µM
"Cn1cncc1C(O)(c1ccncc1)c1ccc2nc(Cl)c(-c3ccccc3)c(N3CCC(O)CC3)c2c1 (centres unmarked) [Example 73, 1-{2-Chloro-6-[hydroxy(1-methyl-1H-imidazol-5-yl)pyridin-4-ylmethyl]-3-phenylquinolin-4-yl}piperidin-4-ol•TFA]",0.018 µM,0.36 µM,88%,1.2 µM
"CCCCN(C)c1nc2ccc(C(O)(c3ccncc3)c3cncn3C)cc2c(Cl)c1-c1ccccc1 (centres unmarked) [Example 76, {2-[Butyl(methyl)amino]-4-chloro-3-phenylquinolin-6-yl}(1-methyl-1H-imidazol-5-yl)pyridin-4-ylmethanol•TFA]",0.0023 µM,0.0049 µM,100%,0.04 µM
"COc1nc2ccc(C(O)(c3cccnc3)c3cccc(Cl)c3)cc2c(Cl)c1-c1ccccc1 (centres unmarked) [Example 80, (4-Chloro-2-methoxy-3-phenylquinolin-6-yl)(3-chlorophenyl)pyridin-3-ylmethanol•TFA]",0.055 µM,0.025 µM,89%,0.12 µM
"CC(C)Oc1nc2ccc(C(O)(c3cccnc3)c3cccc(Cl)c3)cc2c(Cl)c1-c1ccccc1 (centres unmarked) [Example 84, [4-Chloro-2-(1-methylethoxy)-3-phenylquinolin-6-yl](3-chlorophenyl)pyridin-3-ylmethanol•TFA]",1.4 µM,0.89 µM,73%,1.3 µM
"Cc1cc(C(O)(c2ccc3nc(Cl)c(-c4ccccc4)c(Cl)c3c2)c2cncn2C)cc(Cl)n1 (centres unmarked) [Example 87, (2-Chloro-6-methylpyridin-4-yl)(2,4-dichloro-3-phenylquinolin-6-yl)(1-methyl-1H-imidazol-5-yl)methanol•TFA]",0.00011 µM,0.0053 µM,105%,~0.002 µM
"CCOc1nc2ccc(C(O)(c3ccncc3)c3cncn3C)cc2c(Cl)c1-c1ccccc1 (centres unmarked) [Example 88, (4-Chloro-2-ethoxy-3-phenylquinolin-6-yl)(1-methyl-1H-imidazol-5-yl)pyridin-4-ylmethanol•TFA]",0.0096 µM,0.037 µM,100%,0.068 µM
"CC(C)Oc1nc2ccc(C(O)(c3ccncc3)c3cncn3C)cc2c(Cl)c1-c1ccccc1 (centres unmarked) [Example 89, [4-Chloro-2-(1-methylethoxy)-3-phenylquinolin-6-yl](1-methyl-1H-imidazol-5-yl)pyridin-4-ylmethanol•TFA]",0.034 µM,0.16 µM,99%,0.3 µM
"CC(C)Oc1nc2ccc(C(O)(c3ccncc3)c3cncn3C)cc2c(N(C)C)c1-c1ccccc1 (centres unmarked) [Example 90, [4-(Dimethylamino)-2-(1-methylethoxy)-3-phenylquinolin-6-yl](1-methyl-1H-imidazol-5-yl)pyridin-4-ylmethanol•TFA]",0.091 µM,0.3 µM,96%,0.8 µM
"CCOc1nc2ccc(C(O)(c3ccncc3)c3cncn3C)cc2c(N(C)C)c1-c1ccccc1 (centres unmarked) [Example 92, [4-(Dimethylamino)-2-ethoxy-3-phenylquinolin-6-yl](1-methyl-1H-imidazol-5-yl)pyridin-4-ylmethanol•TFA]",0.044 µM,0.12 µM,100%,0.15 µM
"CC(=O)N1CCC(C(O)(c2cccnc2)c2ccc3nc(Cl)c(-c4ccccc4)c(Cl)c3c2)CC1 (centres unmarked) [Example 95, (1-Acetylpiperidin-4-yl)(2,4-dichloro-3-phenylquinolin-6-yl)pyridin-3-ylmethanol•TFA]",0.023 µM,0.5 µM,98%,> 6 µM
"CC(=O)N1CCCC(C(O)(c2cccnc2)c2ccc3nc(Cl)c(-c4ccccc4)c(Cl)c3c2)C1 (centres unmarked) [Example 96, (1-Acetylpiperidin-3-yl)(2,4-dichloro-3-phenylquinolin-6-yl)pyridin-3-ylmethanol•TFA]",0.029 µM,0.37 µM,98%,> 6 µM
"CCc1nc2ccc(C(O)(c3ccncc3)c3cncn3C)cc2c(N(C)C)c1-c1ccccc1 (centres unmarked) [Example 98, [4-(Dimethylamino)-2-ethyl-3-phenylquinolin-6-yl](1-methyl-1H-imidazol-5-yl)pyridin-4-ylmethanol•TFA]",0.036 µM,0.35 µM,98%,0.3 µM
"CCN(CC)c1nc2ccc(C(O)(c3cccnc3)c3cccc(Cl)c3)cc2c(Cl)c1-c1ccccc1 (centres unmarked) [Example 100, (4-Chloro-2-(diethylamino)-3-phenylquinolin-6-yl)(3-chlorophenyl)pyridin-3-ylmethanol•TFA]",0.35 µM,0.16 µM,95%,0.15 µM
